Experimental data from patent US20130109734A1 (Metabolex, Inc., priority 2010, published 2013).

The compounds below were run against T1, human GPR120 (Homo sapiens, UniProt Q5NUL3) (assay: Intracellular Ca2+ assay in human GPR120 stable cell line (HEK293 co-expressing Gqi5), Flexstation). Settings: % activity at 5 μM compared to the maximal activity of GW9508 at 6.7 μM (=100%); human GPR120 cells, Ca2+ fluorescence.
T1 construct: host or cells: HEK293 cells co-expressing Gqi5
T1 sequence (Q5NUL3 1-361): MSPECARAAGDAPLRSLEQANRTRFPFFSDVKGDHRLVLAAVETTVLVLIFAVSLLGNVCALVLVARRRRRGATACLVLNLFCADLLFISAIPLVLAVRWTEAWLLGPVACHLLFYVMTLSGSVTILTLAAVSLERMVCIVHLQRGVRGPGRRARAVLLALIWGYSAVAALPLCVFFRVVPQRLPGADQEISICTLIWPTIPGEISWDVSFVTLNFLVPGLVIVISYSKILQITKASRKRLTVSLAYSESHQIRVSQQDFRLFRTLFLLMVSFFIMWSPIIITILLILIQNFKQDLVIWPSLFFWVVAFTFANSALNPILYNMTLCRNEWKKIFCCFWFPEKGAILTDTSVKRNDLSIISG
Format: cell-based
Protocol: Human GPR120 stable cell line was purchased from Multispan Inc (26219 Eden Landing Road, Hayward, Calif. 94545). This GPR120 cell line was generated in HEK293 cells co-expressing Gqi5. In this cell line, the Flag epitope tag (DYKDDDDK) was fused to the amino terminus of human GPR120 protein.
The concentration of intracellular Ca^2+ was measured as described below. Human GPR120 cells were plated in 96 well plates (Poly-D-Lysine coated black/clear Plate, Greiner Bio-One) at 70,000 cells per well and cultured overnight in conditions of 37° C. and 5% CO2. A Ca^2+assay dye stock solution was prepared by adding 10 mL of assay buffer (HBSS/20 mM HEPES, pH 7.4) to FLIPR Calcium 4 Assay Bulk Kit (Molecular Devices). The 10 mL of Ca^2+ assay dye solution was prepared by further diluting 0.5 mL of Ca^2+ assay dye stock solution with 10 mL of assay buffer. The medium of the cells was removed and immediately 100 μL of the Ca^2+ assay dye solution was dispensed into each well followed by incubation at 37° C. and 5% CO2 for 50 minutes to incorporate the Ca^2+ dye into the cells. The cell plate was then placed in the Flexstation (Molecular Devices) for 20 minutes at 37° C. Compounds were dissolved in 100% DMSO and diluted to desired concentrations with assay buffer and placed in the Flexstation simultaneously with the cell plate for 20 minute incubation at 37° C. prior to reading. Fluorescence intensity was measured immediately following compound addition (25 μL/well) on the Flexstation at an excitation wavelength of 485 nm and an emission wavelength of 525 with 515 nm auto cutoff. The resulting increase in fluorescence intensities corresponds to increases in intracellular Ca^2+ levels.
Compounds were dissolved in 100% DMSO to a concentration of 20 mM to provide stock solutions. To determine activity against human GPR120, compounds were added with human GPR120 stably expressing cells (described above), at eight desired concentrations ranging from 0.00001 to 20 μM, in 96 well plates and fluorescence intensities were measured for 90 seconds with 2-second intervals. An EC50 value (concentration of the GPR120 agonist where 50% of the agonist's maximal activity is observed) was calculated using the changes (Max−Min) of fluorescence intensity.
To determine percent activity for a tested compound, the fluorescence intensity value obtained at a particular concentration were compared to the maximal fluorescence intensity value obtained for reference compound GW9508 (4-[[(3-phenoxyphenyl)methyl]amino]benzene propanoic acid; British Journal of Pharmacology 2006 148, 619-628) or the compound of Example 25. When GW9508 was used as the reference compound, the maximal activity of GW9508 at 6.7 μM was designated as 100% activity. When the compound of Example 25 was used as the reference compound, the maximal activity of the compound of Example 25 at 2.5 μM was designated as 100% activity. Typically, the GW9508 activity reached a maximum at a concentration of approximately 6.7 μM and typically the compound of Example 25 reached a maximum activity at approximately 2.5 μM.

Row | % Activity (GW9508 Reference Compound) [%] | Compound
1 | 60.11 | CC1(C)Cc2cc(Cl)cc(COc3c(F)cc(C4CC4C(=O)O)cc3F)c2O1 (racemic) [Example 35, 2-(4-((5-chloro-2,2-dimethyl-2,3-dihydrobenzofuran-7-yl)methoxy)-3,5-difluorophenyl)cyclopropanecarboxylic acid]
2 | 97.04 | CC1(C)Cc2cc(F)cc(COc3c(F)cc(CC4CC4C(=O)O)cc3F)c2O1 (racemic) [Example 184, 2-(3,5-difluoro-4-((5-fluoro-2,2-dimethyl-2,3-dihydrobenzofuran-7-yl)methoxy)benzyl)cyclopropanecarboxylic acid]
3 | 103.75 | CC1(C)Cc2cc(F)cc(COc3ccc(C4CC4C(=O)O)cc3)c2O1 (single isomer, unassigned) [Example 131A, 2-(4-((5-fluoro-2,2-dimethyl-2,3-dihydrobenzofuran-7-yl)methoxy)phenyl)cyclopropanecarboxylic acid]
4 | 105.8 | CC1(C)Cc2cc(F)cc(COc3ccc(C4CC4C(=O)O)cc3)c2O1 (single isomer, unassigned) [Example 131B, 2-(4-((5-fluoro-2,2-dimethyl-2,3-dihydrobenzofuran-7-yl)methoxy)phenyl)cyclopropanecarboxylic acid]
5 | 95.58 | CC1(C)Cc2cc(F)cc(COc3c(F)cc(CC4CC4C(=O)O)cc3F)c2O1 (single isomer, unassigned) [Example 184A, 2-(3,5-difluoro-4-((5-fluoro-2,2-dimethyl-2,3-dihydrobenzofuran-7-yl)methoxy)benzyl)cyclopropanecarboxylic acid]
6 | 130.66 | CC1(C)Cc2cc(F)cc(COc3c(F)cc(CC4CC4C(=O)O)cc3F)c2O1 (single isomer, unassigned) [Example 184B, 2-(3,5-difluoro-4-((5-fluoro-2,2-dimethyl-2,3-dihydrobenzofuran-7-yl)methoxy)benzyl)cyclopropanecarboxylic acid]
7 | 134.6745 | CC(Cc1cc(F)c(OCc2cccc3c2OC(C)(C)CC3)c(F)c1)C(=O)O (stereo not shown) [Example 2, 3-(4-((2,2-dimethylchroman-8-yl)methoxy)-3,5-difluorophenyl)-2-methylpropanoic acid]
8 | 123.7995 | CC(Cc1cc(F)c(OCc2cccc3c2OCC3)c(F)c1)C(=O)O (stereo not shown) [Example 3, 3-(4-((2,3-dihydrobenzofuran-7-yl)methoxy)-3,5-difluorophenyl)-2-methylpropanoic acid]
9 | 110.8 | Cc1cc(COc2ccc(CC(C)C(=O)O)cc2)c2c(c1)CC(C)(C)O2 (stereo not shown) [Example 4, 2-methyl-3-(4-((2,2,5-trimethyl-2,3-dihydrobenzofuran-7-yl)methoxy)phenyl)propanoic acid]
10 | 149.2 | Cc1cc(COc2c(F)cc(CC(C)C(=O)O)cc2F)c2c(c1)CC(C)(C)O2 (stereo not shown) [Example 5, 3-(3,5-difluoro-4-((2,2,5-trimethyl-2,3-dihydrobenzofuran-7-yl)methoxy)phenyl)-2-methylpropanoic acid]
11 | 147.3 | Cc1cc(CC(C)C(=O)O)ccc1OCc1cc(F)cc2c1OC(C)(C)C2 (stereo not shown) [Example 6, 3-(4-((5-fluoro-2,2-dimethyl-2,3-dihydrobenzofuran-7-yl)methoxy)-3-methylphenyl)-2-methylpropanoic acid]
12 | 168.2 | COc1cc(CC(C)C(=O)O)ccc1OCc1cc(F)cc2c1OC(C)(C)C2 (stereo not shown) [Example 7, 3-(4-((5-fluoro-2,2-dimethyl-2,3-dihydrobenzofuran-7-yl)methoxy)-3-methoxyphenyl)-2-methylpropanoic acid]
13 | 135.3906 | CC(Cc1ccc(OCc2cc(F)cc3c2OC(C)(C)C3)c(F)c1)C(=O)O (stereo not shown) [Example 8, 3-(3-fluoro-4-((5-fluoro-2,2-dimethyl-2,3-dihydrobenzofuran-7-yl)methoxy)phenyl)-2-methylpropanoic acid]
14 | 112.8 | CC(Cc1ccc(OCc2cc(Cl)cc3c2OC(C)(C)C3)c(C(F)(F)F)c1)C(=O)O (stereo not shown) [Example 9, 3-(4-((5-chloro-2,2-dimethyl-2,3-dihydrobenzofuran-7-yl)methoxy)-3-(trifluoromethyl)phenyl)-2-methylpropanoic acid]
15 | 124.2119 | Cc1cc(CC(C)C(=O)O)ccc1OCc1cc(Cl)cc2c1OC(C)(C)C2 (stereo not shown) [Example 11, 3-(4-((5-chloro-2,2-dimethyl-2,3-dihydrobenzofuran-7-yl)methoxy)-3-methylphenyl)-2-methylpropanoic acid]
16 | 116.1354 | CC(Cc1ccc(OCc2cc(Cl)cc3c2OC(C)(C)C3)c(Cl)c1)C(=O)O (stereo not shown) [Example 12, 3-(3-chloro-4-((5-chloro-2,2-dimethyl-2,3-dihydrobenzofuran-7-yl)methoxy)phenyl)-2-methylpropanoic acid]
17 | 84.49 | CC(Cc1cc(Cl)c(OCc2cc(Cl)cc3c2OC(C)(C)C3)c(Cl)c1)C(=O)O (stereo not shown) [Example 14, 3-(3,5-dichloro-4-((5-chloro-2,2-dimethyl-2,3-dihydrobenzofuran-7-yl)methoxy)phenyl)-2-methylpropanoic acid]
18 | 109.2 | COc1cc(CC(C)C(=O)O)ccc1OCc1cc(Cl)cc2c1OC(C)(C)C2 (stereo not shown) [Example 15, 3-(4-((5-chloro-2,2-dimethyl-2,3-dihydrobenzofuran-7-yl)methoxy)-3-methoxyphenyl)-2-methylpropanoic acid]
19 | 110.8294 | CC(Cc1ccc(OCc2cc(F)cc3c2OC(C)(C)C3)cc1)C(=O)O (stereo not shown) [Example 16, 3-(4-((5-fluoro-2,2-dimethyl-2,3-dihydrobenzofuran-7-yl)methoxy)phenyl)-2-methylpropanoic acid]
20 | 130.0714 | CC(Cc1cc(F)c(OCc2cc(F)cc3c2OC(C)(C)C3)c(F)c1)C(=O)O (stereo not shown) [Example 18, 3-(3,5-difluoro-4-((5-fluoro-2,2-dimethyl-2,3-dihydrobenzofuran-7-yl)methoxy)phenyl)-2-methylpropanoic acid]
21 | 125.5 | CC1(C)Cc2cc(F)cc(COc3c(F)cc(C4CC4C(=O)O)cc3F)c2O1 (stereo not shown) [Example 19, 2-(3,5-difluoro-4-((5-fluoro-2,2-dimethyl-2,3-dihydrobenzofuran-7-yl)methoxy)phenyl)cyclopropanecarboxylic acid]
22 | 112.6 | CC(Cc1cc(F)c(OCc2cccc3c2CC(C)(C)O3)c(F)c1)C(=O)O (stereo not shown) [Example 21, 3-(4-((2,2-dimethyl-2,3-dihydrobenzofuran-4-yl)methoxy)-3,5-difluorophenyl)-2-methylpropanoic acid]
23 | 126 | CC1(C)Cc2c(COc3c(F)cc(C4CC4C(=O)O)cc3F)cccc2O1 (stereo not shown) [Example 22, 2-(4-((2,2-dimethyl-2,3-dihydrobenzofuran-4-yl)methoxy)-3,5-difluorophenyl)cyclopropanecarboxylic acid]
24 | 112.7429 | CC(Cc1cc(F)c(OCc2cccc3c2OC(C)(C)C3)c(F)c1)C(=O)O (stereo not shown) [Example 23, 3-(4-((2,2-dimethyl-2,3-dihydrobenzofuran-7-yl)methoxy)-3,5-difluorophenyl)-2-methylpropanoic acid]

Same assay, conditions: human GPR120 cells, Ca2+ fluorescence; reference compounds, typical value

Row | Compound | concentration at which activity reached a maximum
25 | 4-[[(3-phenoxyphenyl)methyl]amino]benzene propanoic acid [GW9508, reference compound] | approximately 6.7 μM
